From PMC7707092, “Discovery and characterization of ORM‐11372, a novel inhibitor of the sodium‐calcium exchanger with positive inotropic activity” (British Journal of Pharmacology, 2020)
pIC50: −log10 of the molar value.

Tests used:
[1] = target: T1, human NaV1.5 channel current (I Na) (Homo sapiens, UniProt Q14524); experiment: NaV1.5 channel current (I Na), patch‐clamp in HEK cells; assay type: cell-based; conditions: room temperature
T1 construct: host or cells: HEK 293, transient (lipofectamine)
T1 sequence (Q14524 1-2015 isoform Q14524-2): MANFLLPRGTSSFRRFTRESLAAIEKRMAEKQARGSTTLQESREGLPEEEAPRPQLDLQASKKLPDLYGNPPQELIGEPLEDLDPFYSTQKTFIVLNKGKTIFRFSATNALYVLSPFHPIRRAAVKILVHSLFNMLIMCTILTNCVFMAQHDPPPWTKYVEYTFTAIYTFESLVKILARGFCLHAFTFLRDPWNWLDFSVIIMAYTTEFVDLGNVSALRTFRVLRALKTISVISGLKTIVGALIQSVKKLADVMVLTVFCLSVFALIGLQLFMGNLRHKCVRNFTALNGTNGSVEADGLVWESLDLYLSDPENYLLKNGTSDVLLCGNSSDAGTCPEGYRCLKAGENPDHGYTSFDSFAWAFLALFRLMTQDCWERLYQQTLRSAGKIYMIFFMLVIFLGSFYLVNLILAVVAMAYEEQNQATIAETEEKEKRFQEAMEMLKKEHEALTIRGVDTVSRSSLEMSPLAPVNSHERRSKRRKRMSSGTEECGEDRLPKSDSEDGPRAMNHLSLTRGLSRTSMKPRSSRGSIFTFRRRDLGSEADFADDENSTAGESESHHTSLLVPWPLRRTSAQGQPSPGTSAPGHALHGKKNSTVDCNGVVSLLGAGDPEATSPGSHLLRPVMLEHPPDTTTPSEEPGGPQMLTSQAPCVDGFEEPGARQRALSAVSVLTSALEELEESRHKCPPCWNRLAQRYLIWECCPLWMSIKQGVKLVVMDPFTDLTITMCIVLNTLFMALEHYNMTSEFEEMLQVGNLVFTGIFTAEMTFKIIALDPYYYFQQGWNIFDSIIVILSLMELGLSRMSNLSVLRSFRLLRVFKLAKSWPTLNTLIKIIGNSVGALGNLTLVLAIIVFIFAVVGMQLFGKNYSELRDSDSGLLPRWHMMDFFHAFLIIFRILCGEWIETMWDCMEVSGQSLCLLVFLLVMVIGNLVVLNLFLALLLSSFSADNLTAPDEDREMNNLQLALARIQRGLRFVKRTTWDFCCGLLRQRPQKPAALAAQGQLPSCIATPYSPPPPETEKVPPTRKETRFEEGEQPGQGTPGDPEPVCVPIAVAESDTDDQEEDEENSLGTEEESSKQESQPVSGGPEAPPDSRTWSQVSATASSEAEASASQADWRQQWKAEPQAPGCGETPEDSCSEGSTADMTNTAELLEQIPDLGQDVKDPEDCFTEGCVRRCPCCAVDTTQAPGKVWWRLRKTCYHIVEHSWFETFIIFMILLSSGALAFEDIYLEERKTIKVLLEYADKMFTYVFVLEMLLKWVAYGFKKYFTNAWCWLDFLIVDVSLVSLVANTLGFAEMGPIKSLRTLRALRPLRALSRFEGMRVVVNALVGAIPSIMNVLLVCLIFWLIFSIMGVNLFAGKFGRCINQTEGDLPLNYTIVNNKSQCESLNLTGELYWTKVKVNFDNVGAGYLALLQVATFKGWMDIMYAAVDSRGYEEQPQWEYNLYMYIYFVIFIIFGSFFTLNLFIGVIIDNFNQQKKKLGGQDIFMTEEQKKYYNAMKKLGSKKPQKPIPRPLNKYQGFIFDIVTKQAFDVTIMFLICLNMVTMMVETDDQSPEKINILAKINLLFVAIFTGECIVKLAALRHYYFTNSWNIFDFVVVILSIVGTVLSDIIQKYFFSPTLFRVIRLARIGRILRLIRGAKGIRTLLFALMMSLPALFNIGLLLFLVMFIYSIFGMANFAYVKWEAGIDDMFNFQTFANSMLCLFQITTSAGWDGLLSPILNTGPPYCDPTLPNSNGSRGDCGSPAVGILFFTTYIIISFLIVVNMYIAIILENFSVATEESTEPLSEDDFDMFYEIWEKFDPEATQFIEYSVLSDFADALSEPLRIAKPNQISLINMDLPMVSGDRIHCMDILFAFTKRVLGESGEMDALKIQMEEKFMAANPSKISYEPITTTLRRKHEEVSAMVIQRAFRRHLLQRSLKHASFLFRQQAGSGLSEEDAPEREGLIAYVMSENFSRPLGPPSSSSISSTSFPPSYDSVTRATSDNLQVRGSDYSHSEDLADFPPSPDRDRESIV
Text: The hERG‐encoded voltage‐dependent potassium channel current (I hERG) cells to be studied were harvested with Detachin solution and either diluted with a volume of CHO cell serum‐free media (supplemented with 100 IU·ml^−1 of penicillin/streptomycin and 25‐mM HEPES) to obtain cells, for which the cell density was ~4 x10^6 cells·ml^−1, or plated on glass coverslips and used on the following 1–2 days. HEK 293 cells were transiently transfected using lipofectamine (Invitrogen, USA), with a human sodium voltage‐gated channel subunit 5 (hSCN5) A (transcript variant 2)‐containing plasmid, in Optimem medium. After a 5‐h incubation period, the transfection medium was replaced with the normal growth medium. The cells were harvested by trypsinization, centrifuged and resuspended in the appropriate extracellular solution for performing studies the next day. CHO–5‐HT2B cells were plated into 96‐well plates on the previous day, at a density of 4 x10^4 cells per well, with a modified version of the growth media.
Manual patch‐clamp recordings of membrane currents (I NCX, L‐type Ca^2+ channel current [I CaL], human cardiac sodium 1.5 current [I Na], and I hERG) were undertaken using either an Axopatch 200B or Axopatch ID amplifier (Molecular Devices, USA), using the whole‐cell configuration. […]

[2] = system: healthy rabbits; experiment: Haemodynamics in anaesthetized rabbits; assay type: in vivo, rabbit; set-up: cardiac relaxation / HR / systolic BP: dose or concentration left out as unconfirmed
Experimental: All animals were given multiple ascending infusion doses of ORM‐11372; blinding was not possible. Systemic BP (SP) and left ventricular pressure (LVP) values were measured with pressure transducers (SP for femoral artery: Isotec, Hugo Sachs Elektronic, Germany; a miniature pressure transducer Mikro‐Tip transducer SPR‐249, Millar Instruments was inserted into the left ventricle via the right carotid artery). The signal was amplified (DC‐bridge amplifier type 660, Hugo Sachs Elektronik, Germany), digitized (I/O connector block type SCB‐68, National Instruments, USA), recorded, and analysed (IHME 1.0.9, Fision Ltd, Finland). Left ventricular inotropic effect (LV + dP/dt max), relaxation (LV − dP/dt min), and HR values were analysed from LVP signals.
Male New Zealand white rabbits (Harlan, Netherlands B.V.) were housed individually in polycarbonate cages (Scanbur Number 8 plastic cages with stainless steel door) with aspen bedding (Aspen Bricks M, Tapvei Ky, Kaavi, Finland). The acclimation period before experiments was at least 21 days. Rabbits weighing 2.0–2.3 kg (age 10–12 weeks) were used for haemodynamically assessing ORM‐11372 (no randomization, baseline values as own control). The diet provided to rabbits was SDS Stanrab (P) SQC pelleted (Special Diet Services Ltd, Witham, England). Water was provided ad libitum in polycarbonate bottles (750 ml).
Rabbits (n = 5) were sedated with i.v. (marginal vein) diazepam (2 mg·kg^−1, Diapam®, Orion Pharma). Anaesthesia was induced with i.v. S‐ketamine (10–20 mg·kg^−1 Ketanest‐S®, Pfizer) and maintained with S‐ketamine i.v. infusion (15–80 mg·kg^−1·h^−1). Animals were placed on a heating table (+38°C), and tracheas were cannulated. Rabbits were ventilated via a rodent ventilator (Ugo Basile 7025, Hugo Sachs Elektronik, Germany; respiratory volume 10 ml·kg^−1, 30 strokes·min^−1 for rabbits). […]

Question: With `Nc1cccc(-c2ccc(CNc3ccc(F)cc3)o2)c1` [ORM‐11372] as the molecule, how does the pIC50 [1] read?
Answer: 4.63

Question: And the HR [2]?
Answer: did not have any effects

Question: And the cardiac relaxation [2]?
Answer: did not have any effects

Question: And the “systolic BP” value [2]?
Answer: did not have any effects

Question: What about the “increase in cardiac contractility (LV + dP/dt max)” value ([2]; infusion 833 μg·kg^−1·min^−1) of the same molecule?
Answer: 35 ± 8%
